Assay results taken from patent US9049864B2, “Pyridazinone herbicidal compounds” (Syngenta Limited, priority 2012, dated 2015).

Experiments:
Experiment in all cases: Post-emergence herbicidal glasshouse test, percentage damage to the plant
Format in all cases: in vivo
Conditions in all cases: post-emergence, 1000 g/ha, evaluated after 13 days
[1] = test system: Alopecurus myosuroides (ALOMY)
Description: (§1) Seeds of a variety of test species are sown in standard soil in pots:—Solanum nigrum (SOLNI), Amaranthus retoflexus (AMARE), Setaria faberi (SETFA), Alopecurus myosuroides (ALOMY), Echinochloa crus-galli (ECHCG), Ipomoea hederacea (IPOHE). After 8 days cultivation (post-emergence) under controlled conditions in a glasshouse (at 24/16° C., day/night; 14 hours light; 65% humidity), the plants are sprayed with an aqueous spray solution derived from the formulation of the technical active ingredient in acetone/water (50:50) solution containing 0.5% Tween 20 (polyoxyethelyene sorbitan monolaurate, CAS RN 9005-64-5). Compounds are applied at 1000 g/ha. The test plants are then grown in a glasshouse under controlled conditions in a glasshouse (at 24/16° C., day/night; 14 hours light; 65% humidity) and watered twice daily. After 13 days, the test is evaluated for the percentage damage caused to the plant. The biological activities are shown in the following table on a five point scale (5=80-100%; 4=60-79%; 3=40-59%; 2=20-39%; 1=0-19%). A comparative experiment is conducted to compare the biological efficacy of a compound of the present invention with those of WO 2011/045271. The test is performed as outlined above using the following compounds. Three different application rates are employed (250 g/ha, 500 g/ha and 1000 g/ha).

[2] = test system: Amaranthus retoflexus (AMARE)
Description: as §1

[3] = test system: Echinochloa crus-galli (ECHCG)
Description: as §1

[4] = test system: Ipomoea hederacea (IPOHE)
Description: as §1

Setaria faberi (SETFA) = test system: Setaria faberi (SETFA)
Description: as §1

Solanum nigrum (SOLNI) = test system: Solanum nigrum (SOLNI)
Description: as §1

SMILES	POST Application ALOMY, percentage damage (five point scale) [1]	POST Application AMARE, percentage damage (five point scale) [2]	POST Application ECHCG, percentage damage (five point scale) [3]	POST Application IPOHE, percentage damage (five point scale) [4]	POST Application SETFA, percentage damage (five point scale) (Setaria faberi (SETFA))	POST Application SOLNI, percentage damage (five point scale) (Solanum nigrum (SOLNI))
CC[S+]([O-])C1=NN(C)C(=O)C(n2c(Cl)c(Cl)c3ccccc32)C1=O (stereo not drawn) [Compound 2.006]	1 (1=0-19%)	1 (1=0-19%)	1 (1=0-19%)	4 (4=60-79%)	1 (1=0-19%)	4 (4=60-79%)
COCC1=NN(C)C(=O)C(n2c(Cl)c(Cl)c3ccccc32)C1=O (stereo not drawn) [Compound 2.008]	1 (1=0-19%)	3 (3=40-59%)	1 (1=0-19%)	5 (5=80-100%)	1 (1=0-19%)	5 (5=80-100%)
CC(C)CC1=NN(C)C(=O)C(n2c(Cl)c(Cl)c3ccccc32)C1=O (stereo not drawn) [Compound 2.009]	1 (1=0-19%)	1 (1=0-19%)	1 (1=0-19%)	2 (2=20-39%)	1 (1=0-19%)	4 (4=60-79%)
CCCCC1=NN(C)C(=O)C(n2c(Cl)c(Cl)c3ccccc32)C1=O (stereo not drawn) [Compound 2.010]	1 (1=0-19%)	3 (3=40-59%)	1 (1=0-19%)	3 (3=40-59%)	1 (1=0-19%)	4 (4=60-79%)
CN1N=C(COCC2CCCCC2)C(=O)C(n2c(Cl)c(Cl)c3ccccc32)C1=O (stereo not drawn) [Compound 2.011]	1 (1=0-19%)	2 (2=20-39%)	1 (1=0-19%)	5 (5=80-100%)	1 (1=0-19%)	4 (4=60-79%)
CN1N=C(COCC(F)(F)F)C(=O)C(n2c(Cl)c(Cl)c3ccccc32)C1=O (stereo not drawn) [Compound 2.012]	1 (1=0-19%)	1 (1=0-19%)	1 (1=0-19%)	4 (4=60-79%)	1 (1=0-19%)	4 (4=60-79%)
CC(C)C1=NN(C)C(=O)C(n2c(Cl)c(Cl)c3ccccc32)C1=O (stereo not drawn) [Compound 2.013]	1 (1=0-19%)	3 (3=40-59%)	1 (1=0-19%)	2 (2=20-39%)	1 (1=0-19%)	4 (4=60-79%)
